Results as given in patent US10945932B2, “Prebiotic oral care compositions containing carboxylic acids” (COLGATE-PALMOLIVE COMPANY, priority 2013, dated 2021).

Columns and labels:
Experiment in all cases: Biofilm growth assay in BHI, crystal violet
Assay type in all cases: cell-based
[1] = test system: Veillonella parvula; conditions: V parvula
Experimental: (§1) Late exponential growth phase liquid cultures were prepared by transferring the respective bacterium from blood agar plates to BHI and overnight incubation at 37° C. in an anaerobic atmosphere for A. viscosus, V. parvula, F. nucleatum, P. gingivalis, P. intermedia, T. forsythia, A. naeslundii, and C. sputigena, and in a 5% CO2 environment for S. salivarius, S. sanguinis, S. mitis, A. actinomycetemcomitans, S. mutans, and S. gordonii. […] Additionally, for each bacterium tested, a background control, to correct for background staining, was added. This background control contained the bacterium tested and 0.03 weight % chlorhexidine, as an antiseptic. Plates were incubated as previously described. After 48 hrs the supernatant was removed from the wells of the plates. The wells were washed twice with 1×100 μL/PBS (phosphate buffered saline), fixed for 20 minutes with 96% vol. ethanol (96% vol. solution in water) and the biofilm retained at the bottom of the wells was stained with 1 weight % crystal violet (1 weight % solution in water). […] Quantification of the stained biofilm was performed by measuring the absorbance at 630 nm using a Multiskan Ascent microplate reader (Thermo Scientific).

[2] = test system: Aggregatibacter actinomycetemcomitans; conditions: A actinomycetemcomitans
Experimental: as §1

[3] = test system: Prevotella intermedia; conditions: P intermedia
Experimental: as §1

[4] = test system: Streptococcus mutans; conditions: S mutans
Experimental: as §1

[5] = test system: Tannerella forsythia; conditions: T forsythia
Experimental: as §1

[6] = test system: Streptococcus mitis; conditions: S mitis
Experimental: as §1

[7] = test system: Streptococcus sanguinis; conditions: S sanguinis
Experimental: as §1

[8] = test system: Porphyromonas gingivalis; conditions: P gingivalis
Experimental: as §1

[9] = test system: Streptococcus gordonii; conditions: S gordonii
Experimental: as §1

[10] = test system: Actinomyces viscosus; conditions: A viscosus
Experimental: as §1

[11] = test system: Fusobacterium nucleatum; conditions: F nucleatum
Experimental: as §1

In the case of `O=C(O)CCC(=O)O` [Succinic acid, succinic acid], the “biofilm growth, OD at 630 nm (crystal violet) at 48 hrs divided by OD of control (control = 1)” value ([1]; 10 μmol/ml) is reported as 1.0118, the “biofilm growth, OD at 630 nm (crystal violet) at 48 hrs divided by OD of control (control = 1)” value ([1]; 20 μmol/ml) is reported as 1.1681 and the “biofilm growth, OD at 630 nm (crystal violet) at 48 hrs divided by OD of control (control = 1)” value ([1]; 25 μmol/ml) is reported as 1.4334. For the same compound, the “biofilm growth, OD at 630 nm (crystal violet) at 48 hrs divided by OD of control (control = 1)” value ([2]; 5 μmol/ml) was 0.6941, the “biofilm growth, OD at 630 nm (crystal violet) at 48 hrs divided by OD of control (control = 1)” value ([2]; 10 μmol/ml) was 0.5093 and the “biofilm growth, OD at 630 nm (crystal violet) at 48 hrs divided by OD of control (control = 1)” value ([2]; 20 μmol/ml) was 0.0593. For the same compound, the “biofilm growth, OD at 630 nm (crystal violet) at 48 hrs divided by OD of control (control = 1)” value ([2]; 25 μmol/ml) was 0.0581, the “biofilm growth, OD at 630 nm (crystal violet) at 48 hrs divided by OD of control (control = 1)” value ([3]; 5 μmol/ml) was 0.8344 and the “biofilm growth, OD at 630 nm (crystal violet) at 48 hrs divided by OD of control (control = 1)” value ([3]; 10 μmol/ml) was 0.7023. The “biofilm growth, OD at 630 nm (crystal violet) at 48 hrs divided by OD of control (control = 1)” value ([3]; 20 μmol/ml) was 0.0589, the “biofilm growth, OD at 630 nm (crystal violet) at 48 hrs divided by OD of control (control = 1)” value ([3]; 25 μmol/ml) was 0.1442 and the “biofilm growth, OD at 630 nm (crystal violet) at 48 hrs divided by OD of control (control = 1)” value ([4]; 5 μmol/ml) was 0.0053. The “biofilm growth, OD at 630 nm (crystal violet) at 48 hrs divided by OD of control (control = 1)” value ([4]; 10 μmol/ml) was 0.2498, the “biofilm growth, OD at 630 nm (crystal violet) at 48 hrs divided by OD of control (control = 1)” value ([4]; 20 μmol/ml) was 1.9127 and the “biofilm growth, OD at 630 nm (crystal violet) at 48 hrs divided by OD of control (control = 1)” value ([4]; 25 μmol/ml) was 0.9686. The “biofilm growth, OD at 630 nm (crystal violet) at 48 hrs divided by OD of control (control = 1)” value ([5]; 5 μmol/ml) was 0.3223, the “biofilm growth, OD at 630 nm (crystal violet) at 48 hrs divided by OD of control (control = 1)” value ([5]; 10 μmol/ml) was 0.0000 and the “biofilm growth, OD at 630 nm (crystal violet) at 48 hrs divided by OD of control (control = 1)” value ([5]; 20 μmol/ml) was 0.0000. The “biofilm growth, OD at 630 nm (crystal violet) at 48 hrs divided by OD of control (control = 1)” value ([5]; 25 μmol/ml) was 0.0000, the “biofilm growth, OD at 630 nm (crystal violet) at 48 hrs divided by OD of control (control = 1)” value ([6]; 5 μmol/ml) was 0.1603 and the “biofilm growth, OD at 630 nm (crystal violet) at 48 hrs divided by OD of control (control = 1)” value ([6]; 10 μmol/ml) was 0.1188. For the same compound, the “biofilm growth, OD at 630 nm (crystal violet) at 48 hrs divided by OD of control (control = 1)” value ([6]; 20 μmol/ml) was 0.0851, the “biofilm growth, OD at 630 nm (crystal violet) at 48 hrs divided by OD of control (control = 1)” value ([6]; 25 μmol/ml) was 0.1085 and the “biofilm growth, OD at 630 nm (crystal violet) at 48 hrs divided by OD of control (control = 1)” value ([7]; 5 μmol/ml) was 3.3955. The “biofilm growth, OD at 630 nm (crystal violet) at 48 hrs divided by OD of control (control = 1)” value ([7]; 10 μmol/ml) was 2.9778, the “biofilm growth, OD at 630 nm (crystal violet) at 48 hrs divided by OD of control (control = 1)” value ([7]; 20 μmol/ml) was 1.7748 and the “biofilm growth, OD at 630 nm (crystal violet) at 48 hrs divided by OD of control (control = 1)” value ([7]; 25 μmol/ml) was 1.9952. The “biofilm growth, OD at 630 nm (crystal violet) at 48 hrs divided by OD of control (control = 1)” value ([8]; 5 μmol/ml) was 1.0520, the “biofilm growth, OD at 630 nm (crystal violet) at 48 hrs divided by OD of control (control = 1)” value ([8]; 10 μmol/ml) was 1.0031 and the “biofilm growth, OD at 630 nm (crystal violet) at 48 hrs divided by OD of control (control = 1)” value ([8]; 20 μmol/ml) was 0.1065. The “biofilm growth, OD at 630 nm (crystal violet) at 48 hrs divided by OD of control (control = 1)” value ([8]; 25 μmol/ml) was 0.1691, the “biofilm growth, OD at 630 nm (crystal violet) at 48 hrs divided by OD of control (control = 1)” value ([9]; 5 μmol/ml) was 2.3866 and the “biofilm growth, OD at 630 nm (crystal violet) at 48 hrs divided by OD of control (control = 1)” value ([9]; 10 μmol/ml) was 4.4978. For the same compound, the “biofilm growth, OD at 630 nm (crystal violet) at 48 hrs divided by OD of control (control = 1)” value ([9]; 20 μmol/ml) was 1.6591, the “biofilm growth, OD at 630 nm (crystal violet) at 48 hrs divided by OD of control (control = 1)” value ([9]; 25 μmol/ml) was 0.5512 and the “biofilm growth, OD at 630 nm (crystal violet) at 48 hrs divided by OD of control (control = 1)” value ([10]; 5 μmol/ml) was 0.3969. For the same compound, the “biofilm growth, OD at 630 nm (crystal violet) at 48 hrs divided by OD of control (control = 1)” value ([10]; 10 μmol/ml) was 0.3190, the “biofilm growth, OD at 630 nm (crystal violet) at 48 hrs divided by OD of control (control = 1)” value ([10]; 20 μmol/ml) was 0.0498 and the “biofilm growth, OD at 630 nm (crystal violet) at 48 hrs divided by OD of control (control = 1)” value ([10]; 25 μmol/ml) was 0.0622. For the same compound, the “biofilm growth, OD at 630 nm (crystal violet) at 48 hrs divided by OD of control (control = 1)” value ([11]; 5 μmol/ml) was 2.7146, the “biofilm growth, OD at 630 nm (crystal violet) at 48 hrs divided by OD of control (control = 1)” value ([11]; 10 μmol/ml) was 5.3887 and the “biofilm growth, OD at 630 nm (crystal violet) at 48 hrs divided by OD of control (control = 1)” value ([11]; 20 μmol/ml) was 0.5404. For the same compound, the “biofilm growth, OD at 630 nm (crystal violet) at 48 hrs divided by OD of control (control = 1)” value ([11]; 25 μmol/ml) was 0.1087.
